In experiment [1] the target is T1, Ephrin type-B receptor 4 (Homo sapiens) (UniProt P54760).
T1 sequence (whole entry): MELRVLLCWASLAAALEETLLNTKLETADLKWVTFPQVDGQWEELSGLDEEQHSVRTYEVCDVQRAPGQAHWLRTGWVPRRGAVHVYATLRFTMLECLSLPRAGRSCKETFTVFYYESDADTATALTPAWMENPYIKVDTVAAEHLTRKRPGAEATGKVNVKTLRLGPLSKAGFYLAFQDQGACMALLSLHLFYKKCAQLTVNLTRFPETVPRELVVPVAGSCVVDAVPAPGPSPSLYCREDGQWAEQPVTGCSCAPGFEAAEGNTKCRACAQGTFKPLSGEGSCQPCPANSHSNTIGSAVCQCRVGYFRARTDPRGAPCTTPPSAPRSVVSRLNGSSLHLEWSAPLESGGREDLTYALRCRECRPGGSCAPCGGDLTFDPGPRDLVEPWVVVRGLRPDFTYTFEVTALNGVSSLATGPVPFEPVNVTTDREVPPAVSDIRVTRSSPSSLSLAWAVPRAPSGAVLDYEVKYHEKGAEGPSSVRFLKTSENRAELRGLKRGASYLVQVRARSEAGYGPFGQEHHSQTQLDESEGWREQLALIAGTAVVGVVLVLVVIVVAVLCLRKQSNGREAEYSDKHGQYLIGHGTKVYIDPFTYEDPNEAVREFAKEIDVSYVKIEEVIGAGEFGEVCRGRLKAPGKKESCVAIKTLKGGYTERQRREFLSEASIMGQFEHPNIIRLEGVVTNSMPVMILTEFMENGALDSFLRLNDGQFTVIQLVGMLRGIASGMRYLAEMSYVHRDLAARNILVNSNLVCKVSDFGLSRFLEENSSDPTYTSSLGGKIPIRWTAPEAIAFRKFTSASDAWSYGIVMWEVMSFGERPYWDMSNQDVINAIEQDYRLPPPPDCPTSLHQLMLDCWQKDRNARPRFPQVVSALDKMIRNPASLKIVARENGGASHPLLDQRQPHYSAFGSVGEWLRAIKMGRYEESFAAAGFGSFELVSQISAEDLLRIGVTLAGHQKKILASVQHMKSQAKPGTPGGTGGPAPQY
The experiment can be described thus: Inhibition of EPHB4 (unknown origin) assessed as residual activity at 1000 nM by KINOMEscan analysis relative to control.

Experiment [2] deals with T2, Serine/threonine-protein kinase NLK (Homo sapiens) (UniProt Q9UBE8).
T2 sequence (whole entry): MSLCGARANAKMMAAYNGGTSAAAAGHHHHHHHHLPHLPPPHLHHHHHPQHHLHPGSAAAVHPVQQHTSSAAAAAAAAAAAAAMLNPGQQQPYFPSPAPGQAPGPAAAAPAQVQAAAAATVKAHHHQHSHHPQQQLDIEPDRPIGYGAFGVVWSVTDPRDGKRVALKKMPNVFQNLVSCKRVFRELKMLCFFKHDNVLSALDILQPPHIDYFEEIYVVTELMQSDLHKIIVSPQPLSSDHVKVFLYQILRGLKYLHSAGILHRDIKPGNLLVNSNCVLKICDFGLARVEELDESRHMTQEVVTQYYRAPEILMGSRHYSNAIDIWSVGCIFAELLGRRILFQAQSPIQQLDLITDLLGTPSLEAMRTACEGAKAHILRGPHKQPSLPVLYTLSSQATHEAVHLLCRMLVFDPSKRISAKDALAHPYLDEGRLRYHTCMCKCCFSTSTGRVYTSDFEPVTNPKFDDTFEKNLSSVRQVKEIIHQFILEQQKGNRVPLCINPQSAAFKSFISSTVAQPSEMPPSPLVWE
The experiment can be described thus: Inhibition of NLK (unknown origin) assessed as residual activity at 1000 nM by KINOMEscan analysis relative to control.

Experiment [3] has as its target T3, Son of sevenless homolog 1 (Homo sapiens) (UniProt Q07889).
T3 sequence (whole entry): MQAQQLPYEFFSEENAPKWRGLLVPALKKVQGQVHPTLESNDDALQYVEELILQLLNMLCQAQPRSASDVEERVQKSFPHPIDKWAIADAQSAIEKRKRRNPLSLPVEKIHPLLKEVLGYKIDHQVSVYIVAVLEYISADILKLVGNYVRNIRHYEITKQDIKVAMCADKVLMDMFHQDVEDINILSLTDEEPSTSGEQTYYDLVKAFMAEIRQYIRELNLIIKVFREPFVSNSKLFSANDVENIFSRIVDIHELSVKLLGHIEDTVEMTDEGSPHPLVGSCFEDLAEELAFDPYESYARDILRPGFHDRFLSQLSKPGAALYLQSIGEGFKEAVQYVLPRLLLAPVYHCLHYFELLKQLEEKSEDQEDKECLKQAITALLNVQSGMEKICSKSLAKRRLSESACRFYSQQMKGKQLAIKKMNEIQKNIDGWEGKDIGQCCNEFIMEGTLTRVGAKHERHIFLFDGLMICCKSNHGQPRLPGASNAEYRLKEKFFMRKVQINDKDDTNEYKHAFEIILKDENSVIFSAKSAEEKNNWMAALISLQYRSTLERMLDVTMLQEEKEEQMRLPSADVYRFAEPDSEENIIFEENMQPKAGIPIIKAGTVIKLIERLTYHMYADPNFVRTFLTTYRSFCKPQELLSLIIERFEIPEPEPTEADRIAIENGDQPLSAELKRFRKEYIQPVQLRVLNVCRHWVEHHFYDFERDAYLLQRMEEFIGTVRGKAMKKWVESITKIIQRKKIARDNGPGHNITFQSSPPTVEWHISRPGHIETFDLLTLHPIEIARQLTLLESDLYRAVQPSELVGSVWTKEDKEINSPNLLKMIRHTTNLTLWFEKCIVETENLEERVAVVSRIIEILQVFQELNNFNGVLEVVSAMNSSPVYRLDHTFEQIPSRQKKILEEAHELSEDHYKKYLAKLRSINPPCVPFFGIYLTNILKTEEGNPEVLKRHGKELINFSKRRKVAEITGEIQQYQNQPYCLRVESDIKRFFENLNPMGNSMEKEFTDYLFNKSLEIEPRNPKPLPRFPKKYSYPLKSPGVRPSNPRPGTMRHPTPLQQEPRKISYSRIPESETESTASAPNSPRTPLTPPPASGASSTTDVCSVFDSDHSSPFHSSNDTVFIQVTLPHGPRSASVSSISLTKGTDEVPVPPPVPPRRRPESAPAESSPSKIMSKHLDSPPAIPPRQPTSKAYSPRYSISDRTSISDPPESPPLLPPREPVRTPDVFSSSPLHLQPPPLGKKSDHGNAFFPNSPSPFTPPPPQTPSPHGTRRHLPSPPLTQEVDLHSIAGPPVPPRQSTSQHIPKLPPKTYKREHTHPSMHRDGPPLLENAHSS
The experiment can be described thus: Stabilization of N-terminal His10-tagged wild-type recombinant human SOS1 catalytic domain (564 to 1049 residues) expressed in Escherichia coli assessed as change in melting temperature at 100 uM with heating from 25 to 85 degreeC by thermal shift assay.

The values that follow come from ChEMBL document CHEMBL5678818, “Discovery of potent SOS1 inhibitors that block RAS activation via disruption of the RAS-SOS1 interaction” (Proc Natl Acad Sci U S A, 2019).

For `COc1cc2nc(C)nc(N[C@H](C)c3cccc(-c4cn[nH]c4)c3)c2cc1OC`, the Activity in experiment [1] was determined as 45%; in experiment [2], 54%.
With `COc1cc2ncnc(N[C@H](C)c3cccc4ccccc34)c2cc1OC`, in experiment [3], the ΔTm worked out at 2.5 °C. For the same compound, the results for the Activity in experiment [1] and in experiment [2] were 99% and 86%, respectively.
Consider `CNCc1ccccc1-c1csc([C@@H](C)Nc2nc(C)nc3cc(OC)c(OC)cc23)c1` [BAY-293], for which the ΔTm in experiment [3] was determined as 3.17 °C.

In general, ΔTm refers to the shift of the melting midpoint relative to a reference.
